# US20080207671A1, “Diagnosis and treatment of diseases arising from defects in the tuberous sclerosis pathway” (The Regents of the University of Michigan, priority 2006, published 2008)
# “Also recorded” adds a separate entry of the source.
# Experiments:
# [1] = tested on: AMPK and TSC2 interaction; test: Co-immunoprecipitation of endogenous AMPK and TSC2; type: cell-based, human; conditions: HEK293
# Protocol: (§1) HEK293 cells were seeded and maintained in Dulbecco's modified Eagle's medium (DMEM) containing 10% fetal bovine serum (FBS). Transfection was performed in serum-free conditions using Lipofectamine reagent (Invitrogen, Carlsbad, Calif.) in accordance with the manufacturer's instructions. In brief, 4 h after transfection, the cells were recovered in DMEM containing 10% FBS for 16 h and then starved for 16-24 h. Cells were then lysed in lysis buffer (10 mM Tris-HCl at pH 7.5, 100 mM sodium chloride, 1% NP-40, 1% Triton X-100, 50 mM sodium fluoride, 2 mM EDTA, 1 mM phenyl methylsulphonyl fluoride, 10 μg ml^−1 leupeptin and 10 μg ml^−1 aprotinine) and immunoprecipitated with the indicated antibodies and protein G-Sepharose beads. Immunocomplexes were analyzed by SDS-polyacrylamide gel electrophoresis (PAGE).
# TSC2 = test: TSC2/TSC1 phosphorylation in transfected HEK293 cells (mobility shift, 32P labelling, two-dimensional phosphopeptide mapping); type: cell-based, human
# Protocol: as §1
# HEK293 cells were cotransfected with HA-tagged TSC2, Myc-tagged TSC1 and the indicated plasmids. Cells were phosphate- and serum-starved for 4 h before incubation with 0.25 mCi ml^−1 32P-orthophosphate (ICN) for 4 h.
# Cells were washed once with ice-cold PBS and lysed. HA-tagged TSC2 was immunoprecipitated, resolved by SDS-PAGE and transferred to a PVDF membrane. Phosphorylated TSC2 was visualized by autoradiography and phosphopeptide mapping was then performed. In brief, the phosphorylated TSC2 bands were excised, fixed in methanol and incubated in 500 μl of 0.5% polyvinylpyrrolidone-40 dissolved in 100 mM acetic acid for 30 min at 37° C. The sample were then digested with 20 μg of TPCK-treated trypsin (Sigma) at 37° C. in 75 mM ammonium bicarbonate buffer at pH 8.0 containing 5% acetonitrile. After digestion, samples were dried under vacuum and suspended in 10 μl of water. Samples were spotted onto a cellulose plate and first dimensional electrophoresis was performed using 1% ammonium bicarbonate buffer at pH 8.9. The plates were separated by chromatography in the second dimension in chromatography buffer (n-butanol:pyridine:acetic acid:water; 20:24:6:30). The plates were dried and phosphopeptides were visualized by autoradiography.
# HEK293 cells = test: Cell size of HEK293 cells by FACS; type: cell-based, human; conditions: 12.5 mM 2-DG or 20 nM rapamycin, 72 hours
# Protocol: FIGS. 17a-17b show TSC2 plays roles for cell size control in response to energy starvation. […] HEK293 cells were cultured in the presence of 12.5 mM 2DG, TSC2 RNAi, or 20 nM rapamycin for 72 hours. Cells were harvested and FACS analysis was performed to determine cell size. The X-axis indicates relative cell size. Cell size distribution curve of the control, as indicated by the gray curve, is included in each panel for comparison purposes. […] Experiments are similar to those in panel A.
# [2] = tested on: acetyl CoA carboxylase (ACC) and eukaryote elongation factor 2 (eEF2); test: Phosphorylation of the AMPK substrates ACC and eEF2; type: cell-based
# AMPK [3] = test: Immunoblot of AMPK T172 phosphorylation (AMPK activation); type: cell-based; conditions: 25 mM
# Protocol: as §1
# S6K and 4EBP1 = conditions: cited from earlier work
# Akt phosphorylation = test: Immunoblot of Akt phosphorylation in HEK293 cells; type: cell-based, human; conditions: 25 mM 2-DG
# Protocol: as §1
# [4] = tested on: eukaryotic elongation factor 2 (eEF2); conditions: Horman et al.; cited from earlier work
# intracellular ATP levels = test: Intracellular ATP levels and AMP/ATP ratio; type: cell-based; conditions: 25 mM
# AMPK [5] = conditions: Corton et al.; cited from earlier work
# EEF4 (TSC2+/+) cells = test: S6K and 4EBP1 phosphorylation in EEF4 (TSC2+/+) fibroblasts; type: cell-based
# [6] = tested on: phosphorylation of S6K, S6, 4EBP1 and mTOR; test: Immunoblot of S6K, S6, 4EBP1 and mTOR phosphorylation in HEK293 cells under energy depletion; type: cell-based, human
# Protocol: as §1
# EEF8 (TSC2−/−) cells = test: S6K and 4EBP1 phosphorylation in EEF8 (TSC2-/-) fibroblasts; type: cell-based
smiles,measurement,setting,value
"O=CC[C@@H](O)[C@H](O)[C@H](O)CO [2-DG, 2-deoxy-glucose]",interaction between endogenous AMPK and TSC2 (co-immunoprecipitation),[1],interact preferentially with AMPK following 2-DG stimulation; also recorded: enhanced; also recorded: enhances the interaction between TSC2 and AMPK; also recorded: stimulates the interaction
same,mobility of TSC1,TSC2,did not alter the mobility of TSC1
same,mobility shift of TSC2,TSC2; 2-DG treatment,mobility shift is due to phosphorylation
same,"TSC2 phosphorylation (in vivo labeling, two dimensional phosphopeptide mapping)",TSC2; 25 and 40 mM,enhanced phosphorylation of several peptides; also recorded: induce TSC2 phosphorylation on multiple spots in vivo
same,cell size,HEK293 cells,significantly decreased cell size; also recorded: decreases cell size
same,cell size,HEK293 cells; listed as 2DG,decreases cell size
same,phosphorylation of ACC and eEF2,[2],2-DG-induced phosphorylation of ACC and eEF2
same,T172 phosphorylation in AMPK,AMPK [3],dramatic increase of T172 phosphorylation; also recorded: induces phosphorylation of AMPK
same,AMPK activation and S6K dephosphorylation as a function of treatment time,AMPK [3]; time course,rapid AMPK activation and concomitant dephosphorylation of S6K
same,S6K and 4EBP1 phosphorylation,"S6K and 4EBP1; 20 to 100 mM, Dennis et al., 2001",inhibition of S6K and 4EBP1 phosphorylation
same,S6K activity,"S6K and 4EBP1; Kimura et al., Krause et al.",inhibit S6K activity
same,Akt phosphorylation,Akt phosphorylation,had little effect
same,phosphorylation of eEF2,[4],increase phosphorylation
same,AMP/ATP ratio,intracellular ATP levels,increase; also recorded: increases the AMP/ATP ratio
same,ATP levels,intracellular ATP levels,statistically significant reduction; also recorded: decreases intracellular ATP levels
same,AMPK activation,AMPK [5],activate AMPK
same,4EBP1 phosphorylation,EEF4 (TSC2+/+) cells,inhibition of phosphorylation of 4EBP1
same,phosphorylation of S6K on T389,[6]; 25 mM,effectively inhibited; also recorded: dephosphorylation
same,phosphorylation of S6 and 4EBP1,[6]; 25 mM,dephosphorylation
same,phosphorylation of mTOR S2448,[6]; 25 mM,inhibited; also recorded: dephosphorylation
same,S6K phosphorylation in TSC2 RNAi knockdown cells,"[6]; HEK293, TSC2 RNAi","blocked in TSC2 knockdown cells, but not in the control cells; also recorded: knockdown of TSC2 by RNA interference blocks the 2-DG response"
same,phosphorylation of S6K and 4EBP1,[6]; depletion of cellular ATP,caused a dephosphorylation of S6K and 4EBP1
same,S6K and 4EBP1 phosphorylation,"EEF8 (TSC2−/−) cells; EEF8, TSC2 T1227A/S1345A mutant expressing cells",less responsive to 2-DG treatment
same,S6K and 4EBP1 phosphorylation,"EEF8 (TSC2−/−) cells; EEF8, vector infected cells",caused little decrease
same,S6K and 4EBP1 phosphorylation,"EEF8 (TSC2−/−) cells; EEF8, wild type TSC2 expressing cells",significantly decreased
